In patent US20060069132A1, “Azolecarboxamide herbicides” (priority 2004, published 2006):

What was measured:
barnyardgrass [1] = test: Test B pre-/postemergence herbicide test; format: in vivo, Echinochloa crus-galli; details: for Barnyardgrass plant response rating (0 to 100 scale): 0 = no effect, 100 = complete control; for Barnyardgrass plant response rating (0 to 100 scale) / Plant response rating, Barnyardgrass: preemergence; for Plant response rating, Barnyardgrass: visual rating 0-100, 0 no effect, 100 complete control; for Barnyardgrass plant response rating: postemergence, visual rating, scale 0 (no effect) to 100 (complete control)
Summary of the method: (§1)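 Herbicidal effect was judged by eye on a 0–100 scale after plants stood 13 to 15 days in the greenhouse following pre- or postemergence treatment with surfactant-containing formulations.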

cocklebur = test: Test B pre-/postemergence herbicide test; format: in vivo, Xanthium strumarium; details: for Cocklebur plant response rating (0 to 100 scale): 0 = no effect, 100 = complete control; for Cocklebur plant response rating (0 to 100 scale) / Plant response rating, Cocklebur: preemergence; for Plant response rating, Cocklebur: visual rating 0-100, 0 no effect, 100 complete control; for Cocklebur plant response rating: postemergence, visual rating, scale 0 (no effect) to 100 (complete control)
Summary of the method: as §1

Surinam grass = test: Test B pre-/postemergence herbicide test; format: in vivo, Urochloa decumbens; details: for Surinam Grass plant response rating (0 to 100 scale): 0 = no effect, 100 = complete control; for Surinam Grass plant response rating (0 to 100 scale) / Plant response rating, Surinam Grass: preemergence; for Plant response rating, Surinam Grass: visual rating 0-100, 0 no effect, 100 complete control; for Surinam Grass plant response rating: postemergence, visual rating, scale 0 (no effect) to 100 (complete control)
Summary of the method: (§2)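 Plants compared with untreated controls 13–15 days post-treatment and given a visual 0–100 injury score. Applications: preemergence to seeds; postemergence at 1- to 4-leaf (2–18 cm); paddy species flooded, 2-leaf stage. Vehicle non-phytotoxic, surfactant included.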

corn = test: Test B pre-/postemergence herbicide test; format: in vivo, Zea mays; details: for Corn plant response rating (0 to 100 scale): 0 = no effect, 100 = complete control; for Corn plant response rating (0 to 100 scale) / Plant response rating, Corn: preemergence; for Plant response rating, Corn: visual rating 0-100, 0 no effect, 100 complete control; for Corn plant response rating: postemergence, visual rating, scale 0 (no effect) to 100 (complete control)
Summary of the method: as §2

morningglory = test: Test B pre-/postemergence herbicide test; format: in vivo, Ipomoea coccinea; details: for Morningglory plant response rating (0 to 100 scale): 0 = no effect, 100 = complete control; for Morningglory plant response rating (0 to 100 scale) / Plant response rating, Morningglory: preemergence; for Plant response rating, Morningglory: visual rating 0-100, 0 no effect, 100 complete control; for Morningglory plant response rating: postemergence, visual rating, scale 0 (no effect) to 100 (complete control)
Summary of the method: as §1

large crabgrass = test: Test B pre-/postemergence herbicide test; format: in vivo, Digitaria sanguinalis; details: for Crabgrass, Large plant response rating (0 to 100 scale): 0 = no effect, 100 = complete control; for Crabgrass, Large plant response rating (0 to 100 scale) / Plant response rating, Crabgrass, Large: preemergence; for Plant response rating, Crabgrass, Large: visual rating 0-100, 0 no effect, 100 complete control; for Crabgrass, Large plant response rating: postemergence, visual rating, scale 0 (no effect) to 100 (complete control)
Summary of the method: as §2

rice = test: Test B flooded paddy test; format: in vivo, Oryza sativa; details: 1000 g ai/ha, visual rating, scale 0 to 100 (0 no effect, 100 complete control), 13 to 15 days
Summary of the method: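 Formulated test chemicals went onto postemergence plants measuring 2 to 18 cm, at one to four leaves. For the paddy assay, species had reached two leaves. Scoring took place 13–15 days later by eye, relative to untreated plants, using 0 for no effect up to 100 for full control.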

[2] = tested on: small flower umbrella sedge; test: Test B flooded paddy test; format: in vivo, Cyperus difformis; details: 1000 g ai/ha, visual rating, scale 0 to 100 (0 no effect, 100 complete control), 13 to 15 days
Summary of the method: (§3)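 Treated at 2-leaf (paddy) or 1–4-leaf, 2–18 cm (postemergence); greenhouse 13–15 d; visual score vs control, 0 none to 100 complete control; dash = not tested.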

pigweed = test: Test B pre-/postemergence herbicide test; format: in vivo, Amaranthus retroflexus; details: for Pigweed plant response rating (0 to 100 scale): 0 = no effect, 100 = complete control; for Pigweed plant response rating (0 to 100 scale) / Plant response rating, Pigweed: preemergence; for Plant response rating, Pigweed: visual rating 0-100, 0 no effect, 100 complete control; for Pigweed plant response rating: postemergence, visual rating, scale 0 (no effect) to 100 (complete control)
Summary of the method: as §2

wheat = test: Test B postemergence herbicide test; format: in vivo, Triticum aestivum; set-up: key to Wheat plant response rating: 0 = no effect, 100 = complete control; details: postemergence, visual rating, scale 0 (no effect) to 100 (complete control)
Summary of the method: (§4)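 After treating 2-leaf paddy plants or 2–18 cm postemergence plants (1 to 4 leaves) with formulated chemical, researchers kept them in a greenhouse for 13–15 days. Effects were judged visually versus controls: 0 indicates none, 100 total control.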

lambsquarters = test: Test B pre-/postemergence herbicide test; format: in vivo, Chenopodium album; details: for Lambsquarters plant response rating (0 to 100 scale): 0 = no effect, 100 = complete control; for Lambsquarters plant response rating (0 to 100 scale) / Plant response rating, Lambsquarters: preemergence; for Plant response rating, Lambsquarters: visual rating 0-100, 0 no effect, 100 complete control; for Lambsquarters plant response rating: postemergence, visual rating, scale 0 (no effect) to 100 (complete control)
Summary of the method: as §2

wild oat = test: Test B postemergence herbicide test; format: in vivo, Avena fatua; details: postemergence, visual rating, scale 0 (no effect) to 100 (complete control)
Summary of the method: as §4

giant foxtail = test: Test B pre-/postemergence herbicide test; format: in vivo, Setaria faberi; details: for Foxtail, Giant plant response rating (0 to 100 scale): 0 = no effect, 100 = complete control; for Foxtail, Giant plant response rating (0 to 100 scale) / Plant response rating, Foxtail, Giant: preemergence; for Plant response rating, Foxtail, Giant: visual rating 0-100, 0 no effect, 100 complete control; for Foxtail, Giant plant response rating: postemergence, visual rating, scale 0 (no effect) to 100 (complete control)
Summary of the method: as §2

velvetleaf = test: Test B pre-/postemergence herbicide test; format: in vivo, Abutilon theophrasti; details: for Velvetleaf plant response rating (0 to 100 scale): 0 = no effect, 100 = complete control; for Velvetleaf plant response rating (0 to 100 scale) / Plant response rating, Velvetleaf: preemergence; for Plant response rating, Velvetleaf: visual rating 0-100, 0 no effect, 100 complete control; for Velvetleaf plant response rating: postemergence, visual rating, scale 0 (no effect) to 100 (complete control)
Summary of the method: as §2

barnyardgrass [3] = test: Test B flooded paddy test; format: in vivo, Echinochloa crus-galli; details: 1000 g ai/ha, visual rating, scale 0 to 100 (0 no effect, 100 complete control), 13 to 15 days
Summary of the method: as §3

CC(=NO)c1cccc(NC(=O)c2sc(C(C)(C)C)nc2C)c1 [Compound 195]
90: Plant response rating, Barnyardgrass (barnyardgrass [1]; 500 g ai/ha) | Barnyardgrass plant response rating (barnyardgrass [1]; 500 g ai/ha) | Pigweed plant response rating (0 to 100 scale) (pigweed; 125 g ai/ha) | Plant response rating, Pigweed (pigweed; 500 g ai/ha)
10: Surinam Grass plant response rating (0 to 100 scale) (Surinam grass; 125 g ai/ha) | Surinam Grass plant response rating (Surinam grass; 125 g ai/ha) | Morningglory plant response rating (0 to 100 scale) (morningglory; 125 g ai/ha) | Wheat plant response rating (wheat; 125 g ai/ha) | Oat, Wild plant response rating (wild oat; 125 g ai/ha) | Velvetleaf plant response rating (0 to 100 scale) (velvetleaf; 125 g ai/ha)
100: Plant response rating, Crabgrass, Large (large crabgrass; 500 g ai/ha)
30: Cocklebur plant response rating (cocklebur; 125 g ai/ha) | Plant response rating, Surinam Grass (Surinam grass; 500 g ai/ha) | Surinam Grass plant response rating (Surinam grass; 500 g ai/ha) | Corn plant response rating (corn; 500 g ai/ha) | Rice plant response rating (rice)
70: Pigweed plant response rating (pigweed; 125 g ai/ha)
80: Crabgrass, Large plant response rating (0 to 100 scale) (large crabgrass; 125 g ai/ha) | Pigweed plant response rating (pigweed; 500 g ai/ha) | Plant response rating, Lambsquarters (lambsquarters; 500 g ai/ha)
40: Barnyardgrass plant response rating (0 to 100 scale) (barnyardgrass [1]; 125 g ai/ha) | Barnyardgrass plant response rating (barnyardgrass [1]; 125 g ai/ha) | Plant response rating, Morningglory (morningglory; 500 g ai/ha) | Velvetleaf plant response rating (velvetleaf; 500 g ai/ha)
60: Cocklebur plant response rating (cocklebur; 500 g ai/ha) | Morningglory plant response rating (morningglory; 500 g ai/ha) | Lambsquarters plant response rating (lambsquarters; 500 g ai/ha) | Plant response rating, Foxtail, Giant (giant foxtail; 500 g ai/ha) | Barnyardgrass plant response rating (barnyardgrass [3])
0: Cocklebur plant response rating (0 to 100 scale) (cocklebur; 125 g ai/ha) | Plant response rating, Cocklebur (cocklebur; 500 g ai/ha) | Corn plant response rating (0 to 100 scale) (corn; 125 g ai/ha) | Plant response rating, Corn (corn; 500 g ai/ha) | Morningglory plant response rating (morningglory; 125 g ai/ha) | Lambsquarters plant response rating (0 to 100 scale) (lambsquarters; 125 g ai/ha) | Lambsquarters plant response rating (lambsquarters; 125 g ai/ha)
50: Crabgrass, Large plant response rating (large crabgrass; 500 g ai/ha) | Sedge, Umbrella plant response rating [2]
20: Corn plant response rating (corn; 125 g ai/ha) | Crabgrass, Large plant response rating (large crabgrass; 125 g ai/ha) | Wheat plant response rating (wheat; 500 g ai/ha) | Oat, Wild plant response rating (wild oat; 500 g ai/ha) | Foxtail, Giant plant response rating (0 to 100 scale) (giant foxtail; 125 g ai/ha) | Foxtail, Giant plant response rating (giant foxtail; 125 g ai/ha) | Foxtail, Giant plant response rating (giant foxtail; 500 g ai/ha) | Plant response rating, Velvetleaf (velvetleaf; 500 g ai/ha) | Velvetleaf plant response rating (velvetleaf; 125 g ai/ha)

CCNC(=O)c1cccc(NC(=O)c2sc(C(C)(C)C)nc2C)c1 [Compound 198]
0: Barnyardgrass plant response rating (barnyardgrass [1]; 125 g ai/ha) | Cocklebur plant response rating (0 to 100 scale) (cocklebur; 125 g ai/ha) | Corn plant response rating (0 to 100 scale) (corn; 125 g ai/ha) | Wheat plant response rating (wheat; 125 g ai/ha) | Velvetleaf plant response rating (0 to 100 scale) (velvetleaf; 125 g ai/ha)
90: Plant response rating, Barnyardgrass (barnyardgrass [1]; 500 g ai/ha) | Cocklebur plant response rating (cocklebur; 500 g ai/ha) | Pigweed plant response rating (0 to 100 scale) (pigweed; 125 g ai/ha)
80: Plant response rating, Morningglory (morningglory; 500 g ai/ha) | Morningglory plant response rating (morningglory; 500 g ai/ha) | Crabgrass, Large plant response rating (0 to 100 scale) (large crabgrass; 125 g ai/ha)
100: Plant response rating, Crabgrass, Large (large crabgrass; 500 g ai/ha) | Plant response rating, Pigweed (pigweed; 500 g ai/ha) | Lambsquarters plant response rating (0 to 100 scale) (lambsquarters; 125 g ai/ha) | Plant response rating, Lambsquarters (lambsquarters; 500 g ai/ha) | Plant response rating, Foxtail, Giant (giant foxtail; 500 g ai/ha)
20: Plant response rating, Cocklebur (cocklebur; 500 g ai/ha) | Surinam Grass plant response rating (Surinam grass; 125 g ai/ha) | Surinam Grass plant response rating (Surinam grass; 500 g ai/ha) | Corn plant response rating (corn; 125 g ai/ha) | Crabgrass, Large plant response rating (large crabgrass; 500 g ai/ha) | Rice plant response rating (rice) | Oat, Wild plant response rating (wild oat; 125 g ai/ha) | Foxtail, Giant plant response rating (0 to 100 scale) (giant foxtail; 125 g ai/ha) | Foxtail, Giant plant response rating (giant foxtail; 125 g ai/ha) | Velvetleaf plant response rating (velvetleaf; 125 g ai/ha) | Velvetleaf plant response rating (velvetleaf; 500 g ai/ha) | Barnyardgrass plant response rating (barnyardgrass [3])
50: Plant response rating, Surinam Grass (Surinam grass; 500 g ai/ha) | Pigweed plant response rating (pigweed; 125 g ai/ha) | Pigweed plant response rating (pigweed; 500 g ai/ha)
60: Cocklebur plant response rating (cocklebur; 125 g ai/ha) | Morningglory plant response rating (morningglory; 125 g ai/ha) | Plant response rating, Velvetleaf (velvetleaf; 500 g ai/ha)
70: Corn plant response rating (corn; 500 g ai/ha) | Sedge, Umbrella plant response rating [2] | Lambsquarters plant response rating (lambsquarters; 125 g ai/ha) | Lambsquarters plant response rating (lambsquarters; 500 g ai/ha)
40: Barnyardgrass plant response rating (0 to 100 scale) (barnyardgrass [1]; 125 g ai/ha) | Plant response rating, Corn (corn; 500 g ai/ha)
10: Surinam Grass plant response rating (0 to 100 scale) (Surinam grass; 125 g ai/ha) | Morningglory plant response rating (0 to 100 scale) (morningglory; 125 g ai/ha) | Crabgrass, Large plant response rating (large crabgrass; 125 g ai/ha) | Wheat plant response rating (wheat; 500 g ai/ha)
30: Barnyardgrass plant response rating (barnyardgrass [1]; 500 g ai/ha) | Oat, Wild plant response rating (wild oat; 500 g ai/ha) | Foxtail, Giant plant response rating (giant foxtail; 500 g ai/ha)
